{
  "source": "patent US20160088853A1",
  "about": "“Ultraviolet Disinfection of Produce, Liquids and Surfaces” (DREXEL UNIVERSITY, priority 2013, published 2016)",
  "key": {"E. coli BL-21": {"system": "E. coli BL-21", "test": "UV inactivation of E. coli BL-21 suspension, plate count", "format": "cell-based", "conditions": "1% (w/v) gallic acid, UV 10 seconds, 109 CFU/mL in phosphate buffer, FIG. 6", "description": "E. coli BL-21 was suspended in phosphate buffer at the level of 10^9 CFU/mL. Gallic acid was incorporated into bacterial suspension at the level of 1% (w/v). This suspension was exposed to UV light (intensity of 4 mJ/cm^2) for 10 seconds. The control experiment was performed in the exact same manner except for addition of gallic acid. After UV treatment, the cells were separated from the buffer through centrifugation and bacterial inactivation was measured using a plate count technique."}, "[1]": {"system": "bacterial and fungal strains", "conditions": "riboflavin with UV 365 nm, artificial surface; cited from earlier work"}, "[2]": {"conditions": "for fluorescence decay rate constant: 1 μM fluorescein, UV; for change in relative fluorescence intensity: 12 minutes of UV exposure", "description": "In this example, fluorescein dye was used to detect the presence of free radicals, since interactions of oxidizing free radicals with fluorescein quench the fluorescence signal intensity. A fluorescein dye solution (4 μg/L) containing 0.4% (w/v) fructose and a fluorescein dye solution (4 μg/L) without fructose (control) were exposed to UV radiation at wavelength of 254 nm.\nA batch-UV processing unit (Spectronics Spectrolinker XL-1500 UV Crosslinker, Westbury, N.Y.) was used for Examples 5-10. The apparatus consisted of 5 UV lamps (254 nm, 15 W, Spectronics Corporation, Westbury, N.Y.) that generated a UV intensity of approximately 20 mW/cm^2 at the surface of exposure mounted within a shielded box (46.4×15.9×31.8 cm). Fluorescence intensity measurement noise was minimized by allowing the lamps to warm up for at least 15 minutes prior to taking measurements.\nThe test fluorescein solution with approximately 1 μM fluorescein was prepared in deionized water (pH 6.3) or 100 mM buffer at pH 6. […] Specifically, treatments were carried out by adding a 10.0 ml solution into an uncovered glass petri dish and exposing it to UV radiation for various amounts of time (0-12 minutes) in the UV processing unit. The samples in the petri dish were stirred to achieve uniform exposure to UV light. Ambient room temperature (20-22° C.) was used for the treatments. To measure the fluorescence intensity of the solution, at each time interval, 100 μl of the sample was pipetted from the petri dish into a well of a 96-well plate optimized for fluorescence measurement. Fluorescence was measured in a Gemini XPS fluorescence micro-plate reader (Molecular Devices, Sunnyvale, Calif.) with excitation and emission wavelengths of 485 nm and 510 nm, respectively. All the fluorescence values were normalized using Eq. (1):\nwhere I0=fluorescence intensity at time t=0 minutes and It=fluorescence intensity after ‘t’ minutes of UV exposure."}, "[3]": {"test": "Solution absorbance at 254 nm", "format": "physicochemical"}, "[4]": {"conditions": "in the presence of fructose, model apple juice system; cited from earlier work"}, "E. coli 0157:H7": {"system": "E. coli 0157:H7", "conditions": "in lettuce; cited from earlier work"}},
  "note": "Where two headings read alike, the source gives them in different places.",
  "data": [
    {"compound": "O=C(O)c1cc(O)c(O)c(O)c1", "note": "[gallic acid, 3,4,5-trihydroxybenzoic acid]", "values": [
      {"measurement": "microbial count after exposure to UV light", "setting": "E. coli BL-21", "result": "undetectable"}
    ]},
    {"compound": "Cc1cc2nc3c(=O)[nH]c(=O)nc-3n(C[C@H](O)[C@H](O)[C@H](O)CO)c2cc1C", "note": "[Riboflavin]", "values": [
      {"measurement": "inactivation of bacterial and fungal strains", "setting": "[1]", "result": "effective in inactivating most of the bacterial and fungal strains"}
    ]},
    {"compound": "O=C(CO)[C@@H](O)[C@H](O)[C@H](O)CO", "note": "[fructose]", "values": [
      {"measurement": "fluorescence decay rate constant", "setting": "[2]; 10 mM fructose", "result": "0.16 ± 0.01", "unit": "min⁻¹"},
      {"measurement": "fluorescence decay rate constant", "setting": "[2]; 20 mM fructose", "result": "0.27 ± 0.02", "unit": "min⁻¹"},
      {"measurement": "fluorescence decay rate constant", "setting": "[2]; 100 mM fructose", "result": "0.91 ± 0.02", "unit": "min⁻¹"},
      {"measurement": "fluorescence decay rate constant", "setting": "[2]; 300 mM fructose", "result": "2.1 ± 0.06", "unit": "min⁻¹"},
      {"measurement": "fluorescence decay rate constant", "setting": "[2]; 500 mM fructose", "result": "2.4 ± 0.13", "unit": "min⁻¹"},
      {"measurement": "fluorescence lost", "setting": "[2]; 500 mM fructose, within 2 minutes of UV exposure, FIG. 10A", "result": "more than 90%"},
      {"measurement": "average absorbance at 254 nm", "setting": "[3]; 500 mM solution", "result": 0.12},
      {"measurement": "UV induced rate of degradation of patulin", "setting": "[4]", "result": "increased"}
    ]},
    {"compound": "Acidified sodium chlorite", "values": [
      {"measurement": "reduction of E. coli 0157:H7", "setting": "E. coli 0157:H7", "result": "≤ 5", "unit": "log"}
    ]},
    {"compound": "c1ccoc1", "note": "[furan, reference compound]", "values": [
      {"measurement": "change in relative fluorescence intensity", "setting": "[2]; 33 μM furan", "result": "< 20", "unit": "%"},
      {"measurement": "change in relative fluorescence intensity", "setting": "[2]; 66 μM furan", "result": "< 20", "unit": "%"},
      {"measurement": "average absorbance at 254 nm", "setting": "[3]; 132 μM", "result": "less than 0.001"}
    ]}
  ]
}
